# Assay results as given in article PMC7010297, “How the initiating ribosome copes with ppGpp to translate mRNAs” (PLoS Biology, 2020).
# “And” between values parts separate entries of the source, which are not always exact repeats. Equal entries are not always repeated. Where two headings read alike, the source gives them in different places.
# Experiments:
# [1] = target: T1, 30S-bound IF2 (30S IC) (Escherichia coli, UniProt P0A705); assay: ppGpp (or GDP) to GTP competitive assay for 30S IC formation by MST; assay type: binding
# T1 construct: 6xHis (N); made in house
# T1 sequence (P0A705 whole entry, looked up): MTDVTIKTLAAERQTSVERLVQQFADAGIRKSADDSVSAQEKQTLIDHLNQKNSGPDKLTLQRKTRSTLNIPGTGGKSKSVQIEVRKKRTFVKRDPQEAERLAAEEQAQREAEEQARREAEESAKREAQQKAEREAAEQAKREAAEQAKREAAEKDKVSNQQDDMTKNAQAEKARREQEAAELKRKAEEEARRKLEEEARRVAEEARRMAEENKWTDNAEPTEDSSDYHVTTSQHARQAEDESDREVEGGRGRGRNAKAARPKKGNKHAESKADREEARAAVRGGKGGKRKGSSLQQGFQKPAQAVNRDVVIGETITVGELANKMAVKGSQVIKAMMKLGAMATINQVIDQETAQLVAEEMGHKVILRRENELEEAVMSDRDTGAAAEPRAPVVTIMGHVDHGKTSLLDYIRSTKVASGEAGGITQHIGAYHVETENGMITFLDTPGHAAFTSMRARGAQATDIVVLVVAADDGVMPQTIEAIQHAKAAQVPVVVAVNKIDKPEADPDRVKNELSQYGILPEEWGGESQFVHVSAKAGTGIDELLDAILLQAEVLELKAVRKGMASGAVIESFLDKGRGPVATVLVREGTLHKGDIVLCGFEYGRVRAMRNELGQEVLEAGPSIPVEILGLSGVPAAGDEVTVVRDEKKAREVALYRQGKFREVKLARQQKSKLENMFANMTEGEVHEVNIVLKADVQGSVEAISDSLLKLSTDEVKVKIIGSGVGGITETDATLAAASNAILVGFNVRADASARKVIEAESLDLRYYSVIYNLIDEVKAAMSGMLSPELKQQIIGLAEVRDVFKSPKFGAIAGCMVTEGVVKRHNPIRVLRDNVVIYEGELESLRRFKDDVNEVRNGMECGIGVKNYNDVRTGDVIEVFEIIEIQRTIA
# Experimental: MST was calculated from the respective fluorescence time dependencies (S3 Fig). […] Symbols as in (B). […] Continuous lines indicate nonlinear regression fittings with quadratic (B and E) or same-site competition (G) functions. Three measurements were performed; mean and standard deviations are plotted (S1 Data).
# […] Symbols are as indicated, 3 measurements were performed, and mean and standard deviation are plotted (S1 Data). Continuous lines show nonlinear regression fittings with a same-site inhibition model. […] (PDF) Click here for additional data file.
# [2] = target: T2, 70S IC (Escherichia coli, UniProt P0A705); assay: 70S IC formation by Bpy-tRNAi accommodation, stopped-flow; assay type: biochemical; parameters: K1, best-fit value: unit not given here; settings: for A0, best-fit value / A1, best-fit value / K1, best-fit value / k2, best-fit value: fit Y=A0+A1*exp(-K1*x)+k2*x; for kfast (s-1) Avg: fluorescence
# T2 construct: 6xHis (N); made in house
# T2 sequence (P0A705 whole entry, looked up): as above
# Experimental: Continuous lines indicate nonlinear regression fittings with a quadratic equation. Three measurements were performed; mean and standard deviation are plotted (S1 Data). (B) as (A) to measure the concentration dependence for each tested guanosine nucleotide at constant IF2 (1 μM). […] Continuous lines show best fits using exponential functions. (D) Formation of 70S IC as measured by Bpy-tRNAi accommodation in the P site of the ribosome; 0.1 μM 30S ICs were formed with Bpy-tRNAi and rapidly mixed with 0.3 μM 50S subunits on a stopped-flow apparatus as described in [14]. Colors are as in (C). Continuous lines show best fits using an exponential function for a single reaction step. Each stopped-flow trace results from the mean of 5 to 7 replicates.
# (A) Scheme of 70S IC formation. […] Time traces were analyzed by nonlinear regression with exponential terms. […] Formation of 70S IC, as measured by Bpy-tRNAi accommodation in the absence (F) or presence of 200 μM ppGpp (G). Time traces were analyzed by nonlinear regression with one exponential term. […] Continuous lines show best fits using an exponential function for a single reaction step. All time traces are mean values of 5 to 10 replicates. Bar graphs show mean and standard errors (error bars) derived from the nonlinear regression fitting (D,E,H,I) (S1 Data).
# To measure 70S pre-IC formation, a SX-20 stopped-flow instrument (Applied Photophysics, Leatherhead, UK) was set up for LS recording with an excitation wavelength of 430 nm. Scattered light was measured at an angle of 90° without a filter. Pseudo first-order conditions were approximated by using ≥3-fold excess of 50S subunits over 30S ICs; 0.2 μM 30S ICs were rapidly mixed in the instrument with 0.6 μM 50S at 25 °C. Bpy-tRNAi accommodation was measured essentially as described elsewhere. Briefly, 0.2 μM 30S ICs were formed using Bpy-tRNAi and rapidly mixed with 0.6 μM 50S at 25 °C. Fluorescence was excited at 470 nm and measured after a 495-nm longpass filter. Individual traces (6–11 traces) were averaged, and the resulting kinetic curve was approximated by single (F = A0 + A1*exp (-kapp1*t)) or double (F = A0 + A1*exp (-kapp1*t) + A2*exp (-kapp2*t)) exponential fit using Graphpad Prism 6.0 software (GraphPad, San Diego, California).
# [3] = target: T3, IF2 (Escherichia coli, UniProt P0A705); assay: IF2-Bpy-tRNAi-GNP ternary complex formation by MST; assay type: binding; settings: S2A Fig
# T3 construct: 6xHis (N); made in house
# T3 sequence (P0A705 whole entry): as the sequence (P0A705 whole entry, looked up) above
# Experimental: Supplementary file pbio.3000593.s002.pdf: S2 Fig IF2-Bpy-tRNAi complex formation as a function of guanosine nucleotides. (A) IF2 concentration dependencies for Bpy-tRNAi binding in the presence of 0.5 mM of the indicated guanosine nucleotides to build IF2-tRNA-GNP ternary complexes (TCs). […] Three to five measurements were performed; mean and standard deviation are plotted (S1 Data). […] (PDF) Click here for additional data file.
compound,measurement,setting,value
"Nc1nc2c(ncn2[C@@H]2O[C@H](COP(=O)(O)OP(=O)(O)O)[C@@H](O)[C@H]2O)c(=O)[nH]1 [GDP, guanosine diphosphate]",IC50,"[1]; mRNA mInfA, read-out: IC50 Average",126 µM
same,IC50,"[1]; mRNA mInfA, read-out: IC50 Replicates",124 µM and 128 µM and 126 µM
same,IC50,"[1]; mRNA mMF1, read-out: IC50 Average",38.6 µM
same,IC50,"[1]; mRNA mMF1, read-out: IC50 Replicates",37.5 µM and 39.6 µM and 38.8 µM
same,IC50,"[1]; mRNA mTufA, read-out: IC50 Average",173 µM
same,IC50,"[1]; mRNA mTufA, read-out: IC50 Replicates",168 µM and 176 µM (2×)
same,efficiency (amplitude) of 70S IC formation (Bpy-tRNAi accommodation),"[2]; 0.2 mM nucleotide, no GTP",reduced efficiencies
same,"A0, best-fit value",[2]; mInfA,0.98
same,"A1, best-fit value",[2]; mInfA,0.0231
same,"K1, best-fit value",[2]; mInfA,1.28
same,"k2, best-fit value",[2]; mInfA,-0.00069
same,"A0, best-fit value",[2]; mMF1,0.93
same,"A1, best-fit value",[2]; mMF1,0.07
same,"K1, best-fit value",[2]; mMF1,1.57
same,"k2, best-fit value",[2]; mMF1,-0.00092
same,Fluorescence Amplitude Avg,[2]; mRNA mInfA,0.023
same,kfast (s-1) Avg,[2]; mRNA mInfA,1.28 s⁻¹
same,Fluorescence Amplitude Avg,[2]; mRNA mMF1,0.067
same,kfast (s-1) Avg,[2]; mRNA mMF1,1.57 s⁻¹
same,Fluorescence Amplitude Avg,[2]; mRNA mTufA,0.062
same,kfast (s-1) Avg,[2]; mRNA mTufA,2.65 s⁻¹
same,"A0, best-fit value",[2]; mTufA,0.94
same,"A1, best-fit value",[2]; mTufA,0.06
same,"K1, best-fit value",[2]; mTufA,2.65
same,"k2, best-fit value",[2]; mTufA,-0.00072
same,MST Average,[3]; IF2 0.08 µM,942.60 a.u.
same,MST Replicates,[3]; IF2 0.08 µM,949.60 a.u. and 944.98 a.u. and 933.23 a.u.
same,MST Average,[3]; IF2 0.16 µM,942.82 a.u.
same,MST Replicates,[3]; IF2 0.16 µM,948.93 a.u. and 934.15 a.u. and 945.38 a.u.
same,MST Average,[3]; IF2 0.31 µM,943.82 a.u.
same,MST Replicates,[3]; IF2 0.31 µM,946.47 a.u. and 934.49 a.u. and 950.50 a.u.
same,MST Average,[3]; IF2 0.63 µM,944.11 a.u.
same,MST Replicates,[3]; IF2 0.63 µM,935.16 a.u. and 946.20 a.u. and 950.97 a.u.
same,MST Average,[3]; IF2 1.25 µM,945.61 a.u.
same,MST Replicates,[3]; IF2 1.25 µM,951.42 a.u. and 947.72 a.u. and 937.68 a.u.
same,MST Average,[3]; IF2 2.50 µM,948.90 a.u.
same,MST Replicates,[3]; IF2 2.50 µM,941.84 a.u. and 953.50 a.u. and 951.35 a.u.
same,MST Average,[3]; IF2 5.00 µM,954.49 a.u.
same,MST Replicates,[3]; IF2 5.00 µM,948.07 a.u. and 955.91 a.u. and 959.48 a.u.
same,MST Average,[3]; IF2 10.00 µM,962.55 a.u.
same,MST Replicates,[3]; IF2 10.00 µM,958.33 a.u. and 964.33 a.u. and 964.97 a.u.
same,MST Average,[3]; IF2 20.00 µM,973.27 a.u.
same,MST Replicates,[3]; IF2 20.00 µM,973.71 a.u. and 974.19 a.u. and 971.91 a.u.
same,MST Average,[3]; IF2 40.00 µM,980.27 a.u.
same,MST Replicates,[3]; IF2 40.00 µM,984.66 a.u. and 983.20 a.u. and 972.95 a.u.
"Nc1nc2c(ncn2[C@@H]2O[C@H](COP(=O)(O)OP(=O)(O)OP(=O)(O)O)[C@@H](O)[C@H]2O)c(=O)[nH]1 [GTP, guanosine triphosphate]",kapp of Bpy-tRNAi accommodation (70S IC formation),"[2]; 30S ICs formed with 0.2 mM nucleotide, mixed with 50S subunits",2.4 ± 0.2 s^–1
same,"A0, best-fit value",[2]; mInfA,0.90
same,"A1, best-fit value",[2]; mInfA,0.11
same,"K1, best-fit value",[2]; mInfA,1.58
same,"k2, best-fit value",[2]; mInfA,-0.00193
same,"A0, best-fit value",[2]; mMF1,0.90
same,"A1, best-fit value",[2]; mMF1,0.10
same,"K1, best-fit value",[2]; mMF1,1.49
same,"k2, best-fit value",[2]; mMF1,-1.6e-5
same,Fluorescence Amplitude Avg,[2]; mRNA mInfA,0.108
same,kfast (s-1) Avg,[2]; mRNA mInfA,1.58 s⁻¹
same,Fluorescence Amplitude Avg,[2]; mRNA mMF1,0.103
same,kfast (s-1) Avg,[2]; mRNA mMF1,1.49 s⁻¹
same,Fluorescence Amplitude Avg,[2]; mRNA mTufA,0.145
same,kfast (s-1) Avg,[2]; mRNA mTufA,2.69 s⁻¹
same,"A0, best-fit value",[2]; mTufA,0.86
same,"A1, best-fit value",[2]; mTufA,0.15
same,"K1, best-fit value",[2]; mTufA,2.69
same,"k2, best-fit value",[2]; mTufA,-0.00034
same,MST Average,[3]; IF2 0.08 µM,945.53 a.u.
same,MST Replicates,[3]; IF2 0.08 µM,952.20 a.u. and 948.28 a.u. and 936.11 a.u.
same,MST Average,[3]; IF2 0.16 µM,947.39 a.u.
same,MST Replicates,[3]; IF2 0.16 µM,938.55 a.u. and 949.51 a.u. and 954.10 a.u.
same,MST Average,[3]; IF2 0.31 µM,948.97 a.u.
same,MST Replicates,[3]; IF2 0.31 µM,951.38 a.u. and 955.20 a.u. and 940.31 a.u.
same,MST Average,[3]; IF2 0.63 µM,950.03 a.u.
same,MST Replicates,[3]; IF2 0.63 µM,955.50 a.u. and 952.44 a.u. and 942.15 a.u.
same,MST Average,[3]; IF2 2.50 µM,955.81 a.u.
same,MST Replicates,[3]; IF2 2.50 µM,960.19 a.u. and 957.37 a.u. and 949.88 a.u.
same,MST Average,[3]; IF2 5.00 µM,963.92 a.u.
same,MST Replicates,[3]; IF2 5.00 µM,963.66 a.u. and 965.85 a.u. and 962.23 a.u.
same,MST Average,[3]; IF2 10.00 µM,973.12 a.u.
same,MST Replicates,[3]; IF2 10.00 µM,974.68 a.u. and 972.27 a.u. and 972.40 a.u.
same,MST Average,[3]; IF2 20.00 µM,982.93 a.u.
same,MST Replicates,[3]; IF2 20.00 µM,983.50 a.u. and 982.36 a.u.
same,MST Average,[3]; IF2 40.00 µM,989.70 a.u.
same,MST Replicates,[3]; IF2 40.00 µM,993.21 a.u. and 991.95 a.u. and 983.94 a.u.
